Reference: patent publication US7732429B2 (Trustees of Tufts College, priority 1994, dated 2010)
≈ marks a conversion by molar mass, not a printed value.

Key:
Type in all cases: cell-based
[1] = test system: S. aureus 450; assay: susceptibility of tetracycline susceptible strains (MIC), C5 esters; details: S. aureus 450, susceptible strain, drug alone
[2] = test system: E. coli ML308; assay: as above; details: E. coli ML308, susceptible strain, drug alone
[3] = test system: E. faecalis ATCC 9790; assay: as above; details: E. faecalis ATCC 9790, susceptible strain, drug alone
[4] = test system: E. coli DI-299 (Tet A); assay: MIC/MLC chart, analog with and without doxycycline; parameters: key to growth/killing, Analog + Doxy / growth/killing, Doxy Control / growth/killing, Analog Control / growth in MIC/MLC chart: +=growth; 0=no growth (MIC); ↓=killing; ? =99.9% killing (MLC); □=no growth, but no microbiologic testing;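 note: bacterial growth inhibition and killing in broth, each agent tested alone or combined with doxycycline across two-fold serial dilutions, overnight incubation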
[5] = test system: E. faecalis 158 (Tet L); assay: MIC/MLC chart, analog with and without doxycycline
[6] = test system: E. faecalis 211 (Tet M); assay: MIC/MLC chart, analog with and without doxycycline
[7] = test system: S. aureus 4250 (Tet K); assay: MIC/MLC chart, analog with and without doxycycline

## C=C1c2cccc(O)c2C(=O)C2=C(O)C3(O)C(=O)C(C(N)=O)=C(O)C(N(C)C)C3C(OC(=O)CC)C12 (stereo not drawn) [Cmpd 2]
[1]
  MIC: 1.3 µg/mL (≈ 2.61 µM)
[2]
  MIC: 10 µg/mL (≈ 20.1 µM)
[3]
  MIC: .8 µg/mL (≈ 1.6 µM)
[4]; analog 1.56 + Doxy 1.55 μg/ml
  growth/killing, Analog + Doxy: +
[4]; analog 1.56 + Doxy 3.1 μg/ml
  growth/killing, Analog + Doxy: +
[4]; analog 1.56 + Doxy 6.2 μg/ml
  growth/killing, Analog + Doxy: +
[4]; analog 1.56 + Doxy 12.3 μg/ml
  growth/killing, Analog + Doxy: +
[4]; analog 3.12 + Doxy 1.53 μg/ml
  growth/killing, Analog + Doxy: +
[4]; analog 3.12 + Doxy 3.05 μg/ml
  growth/killing, Analog + Doxy: +
[4]; analog 3.12 + Doxy 6.1 μg/ml
  growth/killing, Analog + Doxy: +
[4]; analog 6.25 + Doxy 3.0 μg/ml
  growth/killing, Analog + Doxy: +
[4]; analog 6.25 + Doxy 5.9 μg/ml
  growth/killing, Analog + Doxy: +
[4]; analog 12.5 + Doxy 2.8 μg/ml
  growth/killing, Analog + Doxy: +
[4]; analog 12.5 + Doxy 5.5 μg/ml
  growth/killing, Analog + Doxy: +
[4]; analog .195 + Doxy 1.56 μg/ml
  growth/killing, Analog + Doxy: +
[4]; analog .195 + Doxy 3.12 μg/ml
  growth/killing, Analog + Doxy: +
[4]; analog .195 + Doxy 6.25 μg/ml
  growth/killing, Analog + Doxy: +
[4]; analog .195 + Doxy 12.5 μg/ml
  growth/killing, Analog + Doxy: +
[4]; analog .39 + Doxy 1.56 μg/ml
  growth/killing, Analog + Doxy: +
[4]; analog .39 + Doxy 3.12 μg/ml
  growth/killing, Analog + Doxy: +
[4]; analog .39 + Doxy 6.25 μg/ml
  growth/killing, Analog + Doxy: +
[4]; analog .39 + Doxy 12.5 μg/ml
  growth/killing, Analog + Doxy: +
[4]; analog .78 + Doxy 1.56 μg/ml
  growth/killing, Analog + Doxy: +
[4]; analog .78 + Doxy 3.12 μg/ml
  growth/killing, Analog + Doxy: +
[4]; analog .78 + Doxy 6.23 μg/ml
  growth/killing, Analog + Doxy: +
[4]; analog .78 + Doxy 12.4 μg/ml
  growth/killing, Analog + Doxy: +
[4]; analog alone 1.56 μg/ml
  growth/killing, Analog Control: +
[4]; analog alone 3.12 μg/ml
  growth/killing, Analog Control: +
[4]; analog alone 6.25 μg/ml
  growth/killing, Analog Control: +
[4]; analog alone 12.5 μg/ml
  growth/killing, Analog Control: +
[4]; analog alone 25.0 μg/ml
  growth/killing, Analog Control: +
[4]; analog alone .195 μg/ml
  growth/killing, Analog Control: +
[4]; analog alone .39 μg/ml
  growth/killing, Analog Control: +
[4]; analog alone .78 μg/ml
  growth/killing, Analog Control: +
[5]; analog .195 + Doxy 1.56 μg/ml
  growth/killing, Analog + Doxy: +
[5]; analog .195 + Doxy 3.12 μg/ml
  growth/killing, Analog + Doxy: +
[5]; analog .39 + Doxy 1.56 μg/ml
  growth/killing, Analog + Doxy: +
[5]; analog alone .195 μg/ml
  growth/killing, Analog Control: +
[5]; analog alone .39 μg/ml
  growth/killing, Analog Control: +
[5]; analog alone .78 μg/ml
  growth/killing, Analog Control: +
[6]; analog 1.56 + Doxy 1.55 μg/ml
  growth/killing, Analog + Doxy: +
[6]; analog 1.56 + Doxy 3.1 μg/ml
  growth/killing, Analog + Doxy: +
[6]; analog 1.56 + Doxy 6.2 μg/ml
  growth/killing, Analog + Doxy: +
[6]; analog 3.12 + Doxy 1.53 μg/ml
  growth/killing, Analog + Doxy: +
[6]; analog 3.12 + Doxy 3.05 μg/ml
  growth/killing, Analog + Doxy: +
[6]; analog 3.12 + Doxy 6.1 μg/ml
  growth/killing, Analog + Doxy: +
[6]; analog .195 + Doxy 1.56 μg/ml
  growth/killing, Analog + Doxy: +
[6]; analog .195 + Doxy 3.12 μg/ml
  growth/killing, Analog + Doxy: +
[6]; analog .195 + Doxy 6.25 μg/ml
  growth/killing, Analog + Doxy: +
[6]; analog .195 + Doxy 12.5 μg/ml
  growth/killing, Analog + Doxy: +
[6]; analog .39 + Doxy 1.56 μg/ml
  growth/killing, Analog + Doxy: +
[6]; analog .39 + Doxy 3.12 μg/ml
  growth/killing, Analog + Doxy: +
[6]; analog .39 + Doxy 6.25 μg/ml
  growth/killing, Analog + Doxy: +
[6]; analog .39 + Doxy 12.5 μg/ml
  growth/killing, Analog + Doxy: +
[6]; analog .78 + Doxy 1.56 μg/ml
  growth/killing, Analog + Doxy: +
[6]; analog .78 + Doxy 3.12 μg/ml
  growth/killing, Analog + Doxy: +
[6]; analog .78 + Doxy 6.23 μg/ml
  growth/killing, Analog + Doxy: +
[6]; analog .78 + Doxy 12.4 μg/ml
  growth/killing, Analog + Doxy: +
[6]; analog alone 1.56 μg/ml
  growth/killing, Analog Control: +
[6]; analog alone 3.12 μg/ml
  growth/killing, Analog Control: +
[6]; analog alone 6.25 μg/ml
  growth/killing, Analog Control: +
[6]; analog alone .195 μg/ml
  growth/killing, Analog Control: +
[6]; analog alone .39 μg/ml
  growth/killing, Analog Control: +
[6]; analog alone .78 μg/ml
  growth/killing, Analog Control: +
[7]; analog .195 + Doxy 1.56 μg/ml
  growth/killing, Analog + Doxy: +
[7]; analog .195 + Doxy 3.12 μg/ml
  growth/killing, Analog + Doxy: +
[7]; analog .195 + Doxy 6.25 μg/ml
  growth/killing, Analog + Doxy: +
[7]; analog .39 + Doxy 1.56 μg/ml
  growth/killing, Analog + Doxy: +
[7]; analog .39 + Doxy 3.12 μg/ml
  growth/killing, Analog + Doxy: +
[7]; analog .39 + Doxy 6.25 μg/ml
  growth/killing, Analog + Doxy: +
[7]; analog .78 + Doxy 1.56 μg/ml
  growth/killing, Analog + Doxy: +
[7]; analog .78 + Doxy 3.12 μg/ml
  growth/killing, Analog + Doxy: +
[7]; analog alone 1.56 μg/ml
  growth/killing, Analog Control: +
[7]; analog alone .195 μg/ml
  growth/killing, Analog Control: +
[7]; analog alone .39 μg/ml
  growth/killing, Analog Control: +
[7]; analog alone .78 μg/ml
  growth/killing, Analog Control: +
[7]; with 1.55 μg/ml doxycycline (Chart 6B)
  MIC of analog in combination: 1.56 μg/ml
[7]; with 6.23 μg/ml doxycycline (Chart 6B)
  MIC of analog in combination: 0.78 μg/ml
